From publication PMC8426359, “Use of a small molecule integrin activator as a systemically administered vaccine adjuvant in controlling Chagas disease” (NPJ Vaccines, 2021)

Target: T1, integrin α4β1 (very late activation antigen-4, VLA-4) (Homo sapiens, UniProt P05556+P13612)
T1 construct: gene ITGA4; endogenous integrin on Jurkat cells; with integrin β1 (ITGB1)
Experiment: static adhesion of Jurkat cells to VCAM-1; blocked by anti-α[…] or anti-β[…] mAb
Assay type: cell-based

T1 sequence (P13612 34-1032): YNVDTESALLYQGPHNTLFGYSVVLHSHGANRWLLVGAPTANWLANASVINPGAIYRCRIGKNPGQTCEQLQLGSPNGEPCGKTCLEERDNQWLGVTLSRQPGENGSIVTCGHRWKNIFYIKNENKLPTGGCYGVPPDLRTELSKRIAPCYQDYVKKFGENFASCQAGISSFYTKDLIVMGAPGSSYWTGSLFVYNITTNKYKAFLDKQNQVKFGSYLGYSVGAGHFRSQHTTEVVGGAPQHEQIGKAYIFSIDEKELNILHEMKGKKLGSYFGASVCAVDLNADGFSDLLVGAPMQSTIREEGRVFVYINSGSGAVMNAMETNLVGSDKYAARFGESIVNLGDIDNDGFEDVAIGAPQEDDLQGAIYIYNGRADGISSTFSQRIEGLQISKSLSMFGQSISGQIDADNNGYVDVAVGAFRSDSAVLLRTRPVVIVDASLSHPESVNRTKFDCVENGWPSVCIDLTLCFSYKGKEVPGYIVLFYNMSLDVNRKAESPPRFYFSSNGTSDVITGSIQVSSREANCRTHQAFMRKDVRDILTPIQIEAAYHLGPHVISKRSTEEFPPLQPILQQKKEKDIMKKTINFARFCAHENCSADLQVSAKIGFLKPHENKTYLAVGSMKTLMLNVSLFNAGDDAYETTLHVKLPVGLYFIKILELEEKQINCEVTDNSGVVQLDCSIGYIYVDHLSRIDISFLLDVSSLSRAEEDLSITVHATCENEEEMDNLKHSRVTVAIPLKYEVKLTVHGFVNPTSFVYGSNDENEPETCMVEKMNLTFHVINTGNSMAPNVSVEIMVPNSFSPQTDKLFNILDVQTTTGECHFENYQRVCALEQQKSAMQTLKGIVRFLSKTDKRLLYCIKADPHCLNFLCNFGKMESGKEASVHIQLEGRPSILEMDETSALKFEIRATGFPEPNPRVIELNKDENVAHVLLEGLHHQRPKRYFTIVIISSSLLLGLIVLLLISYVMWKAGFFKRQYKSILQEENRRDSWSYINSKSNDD
T1 sequence (P05556 21-798): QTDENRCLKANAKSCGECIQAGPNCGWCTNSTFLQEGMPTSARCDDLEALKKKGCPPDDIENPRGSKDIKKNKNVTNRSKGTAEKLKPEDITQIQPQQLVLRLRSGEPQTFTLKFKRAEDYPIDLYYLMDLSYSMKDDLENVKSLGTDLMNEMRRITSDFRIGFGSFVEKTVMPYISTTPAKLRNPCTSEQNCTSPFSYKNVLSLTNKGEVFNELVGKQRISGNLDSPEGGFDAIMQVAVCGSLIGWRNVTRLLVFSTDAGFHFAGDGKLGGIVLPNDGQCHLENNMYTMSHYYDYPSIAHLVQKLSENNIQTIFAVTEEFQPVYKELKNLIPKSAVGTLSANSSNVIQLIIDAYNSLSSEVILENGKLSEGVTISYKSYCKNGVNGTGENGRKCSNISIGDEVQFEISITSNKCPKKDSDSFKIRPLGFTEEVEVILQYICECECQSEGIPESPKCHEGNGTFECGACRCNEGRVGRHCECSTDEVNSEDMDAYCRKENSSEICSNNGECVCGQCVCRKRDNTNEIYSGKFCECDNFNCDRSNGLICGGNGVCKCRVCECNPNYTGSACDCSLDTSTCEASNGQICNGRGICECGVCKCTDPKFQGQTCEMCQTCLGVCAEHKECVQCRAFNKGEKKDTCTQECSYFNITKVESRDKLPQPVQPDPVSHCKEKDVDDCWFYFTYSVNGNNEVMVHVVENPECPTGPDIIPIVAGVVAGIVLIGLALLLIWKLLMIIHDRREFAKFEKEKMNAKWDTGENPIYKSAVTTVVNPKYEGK

EC50: 2 µM
Compound: O=C(OCCOCCOCCOC(=O)N(Cc1cccs1)Cc1cccs1)N(Cc1cccs1)Cc1cccs1 [7HP349]
